From patent US4578380A, “5H-[1]benzopyrano[2,3-d]pyrimidine derivatives useful for controlling lesions of the gastric and duodenal mucous membranes” (Warner-Lambert Company, priority 1983, dated 1986)

How the values were obtained:
Cold-Stress Ulcer = experiment: Cold-Stress Ulcer; type: in vivo, male rats (Sprague Dawley SIV 50); details: rat
Procedure: 2. Cold-Stress Ulcer Test animals were male rats (Sprague Dawley SIV 50) weighing between 110 and 150 g. The animals were kept fasting 24 hours before starting the test, drinking water being available ad libitum. […] Immediately after administration of the substances the animals were anesthetized with […] on their backs, fixed with adhesive tapes to wooden boards. Thus rendered immobile the animals were put into a permanently lit room, ambient temperature +15° C., relative humidity 50-60%, for 14 hours. After this time of exposure the rats were killed with CO2, the stomachs removed and opened along the greater curvature. After measuring the pH value the gastric mucosa was tested for ulcerations under a stereo magnifying glass. The ulcerations were rated and the ulcer index (UI) calculated as described for test 1, the effect of the substances being expressed as the percentage inhibition of the ulcer formation in comparison to the untreated control group.

gastric mucous membrane = details: cited from earlier work
Gastric Acid Secretion = experiment: Test for the Inhibition of the Gastric Acid Secretion According to Ghosh and Schild; type: in vivo, male rats (Sprague Dawley SIV 50); details: rat
Procedure: 3. Test for the Inhibition of the Gastric Acid Secretion According to Ghosh and Schild (Brit. J. Pharmacol. 13 pp 54-61 (1958) The test animals were male rats (Sprague Dawley SIV 50) weighing between 300-450 g. The animals were kept fasting 24 hours before starting the test, water being available ad libitum. The animals were anesthetized with 1.25 g/kg urethane IP. Trachea, vena jugularis, arteria carotis, and oesophagus were exposed, and a fistula placed at the pylorus. Via an oesophagus tube the stomach was perfused with 1/4000 N NaOH at a flow rate of 3 ml/min. By means of the NaOH perfusion the pH of the gastric juice was adjusted to about pH 7 and continuously measured with a measuring electrode. Via the vena jugularis the acid-stimulating substance (carbachol 0.25 μg/kg/min or pentagastrin 1 μg/kg/min) was infused.

[1] = system: Indomethacin-Induced Ulcer; experiment: Indomethacin-Induced Ulcer; type: in vivo, male rats (Sprague Dawley SIV 50); details: rat
Procedure: 1. Indomethacin-Induced Ulcer Test animals were male rats (Sprague Dawley SIV 50) weighing between 150-200 g. The animals were kept fasting 24 hours before starting the test, drinking water being available ad libitum. The animals were alloted to three groups, each group comprising ten rats. […] Five hours following administration the animals were killed with CO2 gas, the stomachs removed and opened along the greater curvature. After measuring the pH value the stomach was tested for ulcerations under a stereo magnifying glass. The method described by Chaumontet, et al. Arzneimittelforschung/Drug Research 28 (II) pp 2119-2121 (1978) was used to rate the ulcerations and calculate the ulcer index (UI). The effect of the substances was rendered as the percentage inhibition of the ulcers caused by indomethacin in comparison to the untreated reference group.

[2] = 125 mg/kg (dose column: i.g.; method: duodenal catheter)
[3] = 250 mg/kg (dose column: i.g.; method: duodenal catheter)

| Structure (SMILES) | Protective Action in %, "Stress" ulcer model (Cold-Stress Ulcer; 125 mg/kg i.g.) | Antisecretion (Gosh + Schild Model) (Gastric Acid Secretion; [2]) | Antisecretion (Gosh + Schild Model) (Gastric Acid Secretion; [3]) | Protective Action in %, "Indomethacin" ulcer model ([1]; 125 mg/kg i.g.) | Protective Action in %, "Indomethacin" ulcer model ([1]; 250 mg/kg i.g.) | also measured |
| --- | --- | --- | --- | --- | --- | --- |
| CN/C(=N/CCSCc1nc[nH]c1C)NC#N [Cimetidine, reference compound] | – | – | – | – | – | Protective Action in %, "Stress" ulcer model (Cold-Stress Ulcer; 100 mg/kg i.g.): 53%; Protective Action in %, "Stress" ulcer model (Cold-Stress Ulcer; 200 mg/kg i.g.): 54%; undesired side effects (gastric mucous membrane; general statement in therapy): undesired CNS and other side effects; changes of the gastric mucous membrane / relapse ulcers (gastric mucous membrane; long-term treatment, following discontinuation): changes of the gastric mucous membrane found under long-term treatment; Antisecretion (Gosh + Schild Model): pH reached (Gastric Acid Secretion; 5 mg/kg i.v., after 35 min): 7.9 pH; Antisecretion (Gosh + Schild Model): time after which pH 7.9 was reached (Gastric Acid Secretion; 5 mg/kg i.v.): 35 min; Protective Action in %, "Indomethacin" ulcer model ([1]; 100 mg/kg i.g.): 80%; Protective Action in %, "Indomethacin" ulcer model ([1]; 200 mg/kg i.g.): 89%; Protective Action in %, "Indomethacin" ulcer model ([1]; 3 × 100 mg/kg i.g.): 39% |
| CN(C)CCCSc1nc(-c2ccccc2)nc2c1Cc1ccccc1O2 [Compound (1), 4-(3-dimethylaminopropylthio)-2-phenyl-5H-[1]benzopyrano[2,3-d]pyrimidine] | 70% | No effect | No effect | 88% | 95% | Protective Action in %, "Stress" ulcer model (Cold-Stress Ulcer; 250 mg/kg i.g.): 86% |
| Cc1ccc(-c2nc3c(c(SCCCN(C)C)n2)Cc2ccccc2O3)cc1 [Compound (16)] | 72% | No effect | No effect | 83% | 99.5% | – |
| Cc1ccc(-c2nc3c(c(SCCCN4CCOCC4)n2)Cc2ccccc2O3)cc1 [Compound (26), 2-(4-methylphenyl)-4-(3-morpholinopropylthio)-5H-[1]benzopyrano[2,3-d]pyrimidine] | – | – | No effect | – | 50% | – |
| CNCCCSc1nc(-c2ccc(C)cc2)nc2c1Cc1ccccc1O2 [Compound (27a), 4-(3-methylaminopropylthio)-2-(4-methylphenyl)-5H-[1]benzopyrano[2,3-d]pyrimidine] | – | – | No effect | – | 94% | – |
